Key:
CYP116B46 [1] = biological target: T1, CYP116B46 (Tepidiphilus thermophilus, UniProt A0A0K6ITW2); assay: X-ray crystal structure; assay type: binding; conditions: crystals at pH 7.0
T1 construct: gene Ga0061068_103196; full-length, synthetic gene in pET46 Ek/LIC (Ni-NTA purified), expressed in E. coli BL21(DE3); residues 27-779 modelled in crystal

CYP116B46 [2] = biological target: T1, CYP116B46; assay: hydroxylation assay, GC-FID of silylated products; assay type: biochemical; conditions: 0.4 mM substrate, 10 uM enzyme, 1 mM NADP+ with glucose dehydrogenase/glucose recycling, pH 8.0, 30 C, 5 h

T1 sequence (A0A0K6ITW2 entry or part of it): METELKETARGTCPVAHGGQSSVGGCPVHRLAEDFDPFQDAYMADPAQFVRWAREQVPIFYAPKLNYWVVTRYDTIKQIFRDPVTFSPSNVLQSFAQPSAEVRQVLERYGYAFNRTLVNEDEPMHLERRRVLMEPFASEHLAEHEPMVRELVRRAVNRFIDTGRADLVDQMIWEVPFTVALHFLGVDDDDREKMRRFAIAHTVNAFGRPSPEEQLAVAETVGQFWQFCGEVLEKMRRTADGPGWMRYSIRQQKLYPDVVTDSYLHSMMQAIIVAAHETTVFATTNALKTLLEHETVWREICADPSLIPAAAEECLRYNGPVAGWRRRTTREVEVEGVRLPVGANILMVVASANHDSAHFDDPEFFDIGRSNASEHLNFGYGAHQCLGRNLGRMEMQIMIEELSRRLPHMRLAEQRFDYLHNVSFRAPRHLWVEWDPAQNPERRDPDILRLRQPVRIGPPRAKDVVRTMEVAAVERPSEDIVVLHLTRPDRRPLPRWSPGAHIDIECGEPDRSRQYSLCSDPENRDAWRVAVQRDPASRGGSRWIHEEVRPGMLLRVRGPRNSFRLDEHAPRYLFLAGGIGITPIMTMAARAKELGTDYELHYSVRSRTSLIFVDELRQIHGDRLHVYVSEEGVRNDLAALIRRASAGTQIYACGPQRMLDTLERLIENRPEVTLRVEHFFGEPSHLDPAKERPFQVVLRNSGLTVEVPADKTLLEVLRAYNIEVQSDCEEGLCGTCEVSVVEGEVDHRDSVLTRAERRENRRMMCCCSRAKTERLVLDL

## Cc1cc2nc3c(=O)[nH]c(=O)nc-3n(C[C@H](O)[C@H](O)[C@H](O)COP(=O)(O)O)c2cc1C [FMN]
CYP116B46 [1]; reductase domain, co-purified with the recombinant protein
  X-ray crystal structure, 2.13 A: The FMN bound in the reductase domain was co-purified with the recombinant protein

## [S]1[Fe][S][Fe]1 [[2Fe-2S] cluster]
CYP116B46 [1]; ferredoxin domain
  X-ray crystal structure, 2.13 A: binding sites for each of the prosthetic groups, heme, FMN and binuclear Fe-S cluster

## CCCCCCCCCC(=O)O [decanoic acid]
CYP116B46 [2]
  hydroxylation assay, GC-FID of silylated products: The enzyme activity of CYP116B46 was estimated by decanoic acid hydroxylation assay
